Legend:
[1] = system: Staphylococcus hominis DMS 20328; assay: MIC, microtitre dilution test (growth by optical density at 620 nm); type: cell-based; settings: Table 2; Staphylococcus hominis DMS 20328
Description: (§1) Casein/soybean flour peptone bouillon for the preparation of pre-cultures of the test bacteria and yeast.
(§2) The test substances are predissolved in dimethyl sulfoxide (DMSO) and tested in a dilution series of 1:2.
(§3) Bacteria and yeast are cultured overnight in CASO bouillon, the mould is cultured overnight on mycological slant agar, and washed off with 10 ml of 0.85% sodium chloride solution (+0.1% TritonX-100).
(§4) All the test organisms are adjusted to an organism count of 1-5×10^6 CFU/ml using 0.85% sodium chloride solution.
(§5) The test substances are pre-pipetted into microtitre plates in an amount of 8 μl per well.
(§6) Pre-diluted organism suspensions are diluted 1:100 in CASO bouillon (bacteria and yeast) or Sabouraud 2% glucose bouillon (mould) and are added in an amount of 192 μl per well to the test substances.
(§7) The test batches are incubated for 48 hours at 37° C. (bacteria and yeast) or for 5 days at 28° C. (mould).
(§8) After incubation, the growth is evaluated by reference to the turbidity of the test batches (optical density) at 620 nm in a microplate reader.
(§9) The minimum inhibitory concentration (MIC value) is the concentration of substance at which (compared with the growth of the control) an appreciable inhibition of growth (≦20% growth) of the test organisms is ascertained.
(§10) One microtitre plate is used for each test organism and substance concentration. All the substances are tested in duplicate.

[2] = system: Escherichia coli NCTC 8196; assay: as above; type: cell-based; settings: Table 2; Escherichia coli
Description: as §1, §2, §3, §4, §5, §6, §7, §8, §9, §10

Structure (SMILES)	MIC [ppm] S. hominis [1] [ppm]	MIC [ppm] E. coli [2] [ppm]
Cn1c2c(c3ccccc31)C1CC(C)(C)NC(C)(C)C1C1C(=O)N(c3ccccc3)C(=O)C21 (stereo not shown) [Compound 24]	>120	>120
CC1(C)CC2c3c([nH]c4ccccc34)C3C(=O)NC(=O)C3C2C(C)(C)N1 (stereo not shown) [Compound 28]	>120	>120
O=C1NC(=O)C2C1c1[nH]c3ccc(Br)cc3c1C1CCCCCC12 (stereo not shown) [Compound 32]	3.75	>120
CCCN1CCC2c3c([nH]c4ccc(Br)cc34)C3C(=O)NC(=O)C3C2C1 (stereo not shown) [Compound 33]	30	60
CCCN1CCC2c3c([nH]c4ccccc34)C3C(=O)N(CC)C(=O)C3C2C1 (stereo not shown) [Compound 41]	>120	>120
CCCN1CCC2c3c([nH]c4ccc(Br)cc34)C3C(=O)N(CC)C(=O)C3C2C1 (stereo not shown) [Compound 46]	120	120
CCOC(=O)N1CCC2c3c([nH]c4ccccc34)C3C(=O)NC(=O)C3C2C1 (stereo not shown) [Compound 54]	>120	>120
CC(C)N1CCC2c3c([nH]c4ccccc34)C3C(=O)NC(=O)C3C2C1 (stereo not shown) [Compound 55]	>120	>120
CC1CCC2C(C1)c1c([nH]c3ccccc13)C1C(=O)NC(=O)C12 (stereo not shown) [Compound 56]	30	>120
CCCCCCC1CCC2C3C(=O)NC(=O)C3c3[nH]c4ccccc4c3C12 (stereo not shown) [Compound 57]	>120	>120
CC1(C)CC2c3c([nH]c4ccccc34)C3C(=O)NC(=O)C3C2C(C)(C)C1 (stereo not shown) [Compound 63]	7.5	>120

Next, values leading:

MIC [ppm] S. hominis [1] [ppm]	MIC [ppm] E. coli [2] [ppm]	Structure (SMILES)
>120	>120	CC(C)(C)C1CCC2c3c([nH]c4ccccc34)C3C(=O)N(c4ccccc4)C(=O)C3C2C1 (stereo not shown) [Compound 13]
>120	>120	CCCN1CCC2c3c([nH]c4ccccc34)C3C(=O)N(c4ccccc4)C(=O)C3C2C1 (stereo not shown) [Compound 15]
>120	>120	CC(C)(C)C1CCC2c3c([nH]c4ccc(Br)cc34)C3C(=O)N(c4ccccc4)C(=O)C3C2C1 (stereo not shown) [Compound 19]
>120	>120	Cn1c2c(c3ccccc31)C1CCC(C(C)(C)C)CC1C1C(=O)N(c3ccccc3)C(=O)C21 (stereo not shown) [Compound 22]
15	>120	CC(C)(C)C1CCC2c3c([nH]c4ccccc34)C3C(=O)NC(=O)C3C2C1 (stereo not shown) [Compound 26]
15	>120	CC(C)(C)C1CCC2c3c([nH]c4ccc(Br)cc34)C3C(=O)NC(=O)C3C2C1 (stereo not shown) [Compound 31]
>120	>120	Cn1c2c(c3ccccc31)C1CCC(C(C)(C)C)CC1C1C(=O)NC(=O)C21 (stereo not shown) [Compound 36]
>120	>120	CCN1C(=O)C2c3[nH]c4ccccc4c3C3CCC(C(C)(C)C)CC3C2C1=O (stereo not shown) [Compound 39]
>120	>120	CCN1C(=O)C2c3[nH]c4ccc(Br)cc4c3C3CCC(C(C)(C)C)CC3C2C1=O (stereo not shown) [Compound 44]
>120	>120	CCN1C(=O)C2c3c(c4ccccc4n3C)C3CCC(C(C)(C)C)CC3C2C1=O (stereo not shown) [Compound 49]
>120	>120	CCOC(=O)N1CCC2c3c([nH]c4ccccc34)C3C(=O)N(c4ccccc4)C(=O)C3C2C1 (stereo not shown) [Compound 52]
120	>120	O=C1NC(=O)C2C1c1[nH]c3ccccc3c1C1CCN(Cc3ccccc3)CC12 (stereo not shown) [Compound 60]

From patent US6967215B2, “Tetrahydrocarbazoles, a process for the preparation of those compounds, and the use thereof” (Ciba Specialty Chemicals Corporation, priority 2000, dated 2005)
